# Reference: US12247022B2, “Combinations for treatment of NASH/NAFLD and related diseases” (Pfizer Inc., priority 2018, dated 2025)
# Experiments:
# Format in all cases: in vivo, rat
# [1] = system: Ionized calcium binding adaptor molecule 1 (Iba1); assay: Hepatic Iba1 staining, CDAHFD fed rats; settings: twice daily for 6 weeks; Compound A 5 mg/kg, Compound D 30 mg/kg, or co-administration; 12 weeks on CDAHFD
# Experimental: (§1) A randomized, vehicle-controlled, 5-parallel arm study was conducted in male Wistar-Han rats (Charles River (Boston, MA)) fed a choline-deficient and high fat diet (CDAHFD) (Research diets; A16092003) to identify differences in improvements in markers of hepatic inflammation and fibrosis when administering either Compound A or Compound D alone as monotherapy or in combination. Standard laboratory conditions were used to house 60 rats (˜200 g); they were double housed and kept under 12:12-hour reverse light-dark schedule (lights off at 8:00 AM). Rats were fed choline deficient and high fat diet (CDAHFD) beginning 6-weeks prior to initiation of the study. Rats, randomized into 4 dosing groups (n=12/group), received twice daily administration of vehicle, Compound A (5 mg/kg) monotherapy, Compound D (30 mg/kg) monotherapy, or co-administration Compound A (5 mg/kg) and Compound D (30 mg/kg) for a period of 6-weeks. […] Histology was assessed following 6-weeks of drug administration which corresponded to 12 weeks on the CDAHFD. […]
# Following the 12-weeks on CDAHFD, the animals were sacrificed by CO2 asphyxiation. […] A portion of the pulverized liver sample from each animal was processed and analyzed for gene expression markers of fibrogenesis. Rat taqman probes against […]SMA and COL1A1 were all assessed using Actb as housekeeping gene on qPCR. […]
# [2] = system: COL1A1; assay: Hepatic COL1A1 gene expression (qPCR), CDAHFD fed rats; settings: twice daily for 6 weeks, Compound A 5 mg/kg, Compound D 30 mg/kg, or co-administration, Actb
# Experimental: as §1
# Following the 12-weeks on CDAHFD, the animals were sacrificed by CO2 asphyxiation. […] A portion of the pulverized liver sample from each animal was processed and analyzed for gene expression markers of fibrogenesis. Rat taqman probes against […]SMA and COL1A1 were all assessed using Actb as housekeeping gene on qPCR.
# [3] = system: CDAHFD fed Male Wistar Hann rats; assay: Liver stiffness by shearwave elastography, CDAHFD fed rats; settings: twice daily for 6 weeks, Compound A 5 mg/kg, Compound D 30 mg/kg, or co-administration
# Experimental: as §1, with “6-weeks. Animals (n=12) remaining on normal chow throughout the study and administered twice-daily vehicle were used as a control group. Blood samples were collected prior to starting compound administration and 3- and 6-week post compound administration for the assessment of circulating markers.” for “6-weeks.”
# [4] = system: Western diet fed Sprague Dawley rats; assay: Fasted plasma triglyceride (TG), Western diet fed rats, oral dosing; settings: oral monotherapy, 4 hour fast, 2 hours post-dose
# Experimental: A randomized, vehicle-controlled, 8-parallel arm study was conducted in male Sprague-Dawley rats (Charles River (Boston, MA)) to obtain circulating and hepatic TG levels. Standard laboratory conditions were used to house 96 rats (˜200 g); they were double housed and kept under 12:12-hour reverse light-dark schedule (lights off at 8:00 AM). Rats were randomized into chow or Western diet groups and dose groups upon arrival and were given a 14-day lead-in period on either standard rat chow or Western diet prior to the start of the study. Standard Laboratory Rodent chow diet, 5053, was from LabDiet (PMI, St Louis, Missouri). Western Diet, D12079Bi, was from Research Diets (New Brunswick, New Jersey).
# For these studies, vehicle was prepared to make a 0.5% (wt/volume) of methyl cellulose (MC, Sigma Aldrich; 274429) in deionized water. The stock solutions with either Compound A (prepared from the tris salt) or Compound D were prepared with the respective compound to provide a concentration such that 10 ml of the solution would deliver the desired mg/kg dosage amount, where the average weight of the rats used was about 200 g.
# Starting on Day 1 of the study, rats were dosed orally (10 mL/kg) with either vehicle control (0.5% MC (wt/volume %) in dionized water), low or high doses of Compound A (1 mg/kg or 10 mg/kg QD, respectively), low or high doses of Compound D (5 mg/kg or 30 mg/kg BID respectively), or co-administration of low doses (Compound A at 1 mg/kg QD and Compound D at 5 mg/kg BID), or co-administration of high doses (Compound A at 10 mg/kg QD and Compound D at 30 mg/kg BID)
# Fasted plasma analytes: Blood for determining fasted plasma TG was collected after a 4 hour fast, 2 hours post-dose (2 hours into the dark cycle) via lateral tail vein, transferred to BD Microtainer tubes coated with K2EDTA (PN365974), and centrifuged at 4° C. The resulting plasma samples were then analyzed on a Siemens Chemistry XPT clinical analyzer (Malven, PA) using Siemens triglycerides 2 assay reagents (ref 10335892).
Compound,reduction of Iba1 staining [1],hepatic collagen A1A (COL1A1) gene expression [2],"liver stiffness (shearwave elastography, kPa) [3]","reduction of fasted plasma TG, relative to vehicle administered Western diet fed rats ([4]; high dose (Compound D 30 mg/kg BID))","reduction of fasted plasma TG, relative to vehicle administered Western diet fed rats ([4]; low dose (Compound D 5 mg/kg BID))","increase in fasted plasma TG, relative to vehicle administered Western diet fed rats ([4]; high dose (Compound A 10 mg/kg QD))","increase in fasted plasma TG, relative to vehicle administered Western diet fed rats ([4]; low dose (Compound A 1 mg/kg QD))"
"CCOc1cccnc1Oc1cncc(-c2ncc(C(=O)N[C@H]3CCOC3)cn2)c1 [Compound D, (S)-2-(5-((3-ethoxypyridin-2-yl)oxy)pyridin-3-yl)-N-(tetrahydrofuran-3-yl)pyrimidine-5-carboxamide]",did not alter,reduced,reduced liver stiffness,35%,20%,,
"COc1cc(C(=O)N2CCC3(CC2)CC(=O)c2c(cnn2C(C)C)C3)cc(-c2ccc(C(=O)O)cc2)n1 [Compound A, 4-(4-(1-isopropyl-7-oxo-1,4,6,7-tetrahydrospiro[indazole-5,4′-piperidine]-1′-carbonyl)-6-methoxypyridin-2-yl)benzoic acid]",15%,reduced,reduced liver stiffness,,,1.7 fold,2.4 fold
